Laboratory results from US8008283B2, “Methods and compositions for the treatment of neuropsychiatric disorders” (Neurotherapeutics Pharma, Inc., priority 2005, dated 2011).

Columns and labels:
[1] = system: human skin; details: Willis et al.; cited from earlier work
[2] = system: urethane-anesthetized rats; assay: kainic acid-evoked electrical status epilepticus in urethane-anesthetized rats (Example 70); type: in vivo, rat
Method: Body temperature was monitored using a rectal temperature probe and maintained at 35-37° C. with a heating pad; heart rate (EKG) was continuously monitored. The jugular vein was cannulated on one side for intravenous drug administration. Rats were placed in a Kopf stereotaxic device (with the top of the skull level), and a bipolar stainless-steel microelectrode insulated to 0.5 mm of the tip was inserted to a depth of 0.5-1.2 mm from the cortical surface to record electroencephalographic (EEG) activity in the fronto-parietal cortex. In some experiments, a 2M NaCl-containing pipette was lowered to a depth of 2.5-3.0 mm to record hippocampal EEG. Data were stored on VHS videotape and analyzed off-line.
Following the surgical preparation and electrode placement, animals were allowed to recover for 30 minutes before the experiments were initiated with an injection of kainic acid (10-12 mg/kg i.v.). […] Experiments were terminated with the intravenous administration of urethane. Animal care was in accordance with NIH guidelines and approved by the University of Washington Animal Care Committee.

[3] = system: rats; assay: fear potentiated startle (FPS) test in rats; type: in vivo, rat
Method: Twenty-four rats received a 30 min period of habituation to the FPS apparatus. Twenty-four hours later, baseline startle amplitudes were collected. The rats were then divided into three matched groups based on baseline startle amplitudes. […] Groups 1 and 2 therefore consisted of 8 rats each, with Group 3 consisting of […]. Following baseline startle amplitude collection, 20 light/shock pairings were delivered on two sessions over two consecutive days (i.e., 10 light/shock pairings per day). […] Immediately following injections, startle amplitudes were assessed during startle alone trials and startle plus fear (light followed by startle) trials. Fear potentiated startle (light+startle amplitudes minus startle alone amplitudes) was compared between the treatment groups.
Animals were trained and tested in four identical stabilimeter devices (Med-Associates). Briefly, each rat was placed in a small Plexiglas cylinder. The floor of each stabilimeter consisted of four 6-mm-diameter stainless steel bars spaced 18 mm apart through which shock can be delivered. Cylinder movements result in displacement of an accelerometer where the resultant voltage is proportional to the velocity of the cage displacement. Startle amplitude is defined as the maximum accelerometer voltage that occurs during the first 0.25 sec after the startle stimulus is delivered. […] Each stabilimeter was enclosed in a ventilated, light-, and sound-attenuating box. All sound level measurements were made with a Precision Sound Level Meter. The noise of a ventilating fan attached to a sidewall of each wooden box produced an overall background noise level of 64 dB. The startle stimulus was a 50 ms burst of white noise (5 ms rise-decay time) generated by a white noise generator. The visual conditioned stimulus employed was illumination of a light bulb adjacent to the white noise source. The unconditioned stimulus was a 0.6 mA foot shock with duration of 0.5 sec, generated by four constant-current shockers located outside the chamber. The presentation and sequencing of all stimuli were under the control of the microcomputer.
FPS procedures consisted of 5 days of testing; during days 1 and 2 baseline startle responses were collected, days 3 and 4 light/shock pairings were delivered, day 5 testing for fear potentiated startle was conducted.
Matching: On the first two days all rats were placed in the Plexiglas cylinders and 3 min later presented with 30 startle stimuli at a 30 sec interstimulus interval.
Training: On the following 2 days, rats were placed in the Plexiglas cylinders. […] The shock was delivered during the last 0.5 sec of the 3.7 sec CSs at an average intertrial interval of 4 min (range, 3-5 min).
These initial startle stimuli were used to again habituate the rats to the acoustic startle stimuli. Thirty seconds after the last of these stimuli, each animal received 60 startle stimuli with half of the stimuli presented alone (startle alone trials) and the other half presented 3.2 sec after the onset of the 3.7 sec CS (CS-startle trials). All startle stimuli are presented at a mean 30 sec interstimulus interval, randomly varying between 20 and 40 sec.
Measures: The treatment groups were compared on the difference in startle amplitude between CS-startle and startle-alone trials (fear potentiation).
The therapeutic efficacy of several bumetanide analogs in alleviating anxiety was examined using the fear potentiated startle (FPS) test in rats as described above.

[4] = system: rat hippocampal slices; assay: stimulation evoked after discharge activity in rat hippocampal slices (Example 68); type: cell-based
Method: Sprague-Dawley rats (males and females; 25-35 days old) were decapitated, the top of the skull was rapidly removed, and the brain chilled with ice-cold oxygenated slicing medium. […] A hemisphere of brain containing hippocampus was blocked and glued (cyanoacrylic adhesive) to the stage of a Vibroslicer (Frederick Haer, Brunsick, Me.). […] In the recording chamber, the slices were perfused with oxygenated recording medium at 34-35° C. All animal procedures were conducted in accordance with NIH and University of Washington animal care guidelines. In most slice experiments, simultaneous extracellular field electrode recordings were obtained from CA1 and CA3 areas. A bipolar tungsten stimulating electrode was placed on the Schaffer collaterals to evoke synaptically-driven field responses in CA1. Stimuli consisted of 100-300 μsec duration pulses at an intensity of four times the population-spike threshold. After discharges were evoked by a 2 second train of such stimuli delivered at 60 Hz.

[5] = 2.5 mM furosemide, after 20 minutes of perfusion

NS(=O)(=O)c1cc(C(=O)O)c(NCc2ccco2)cc1Cl [furosemide]
sensory nerve activation, itch and flare responses induced by histamine [1]: inhibit sensory nerve activation to reduce the itch and flare responses
cortical activity ([2]; 90 minutes after the furosemide injection): remained near normal baseline levels
latency of block of seizure activity ([2]; intravenous furosemide, cumulative dose 40-60 mg/kg): 30 to 45 min
seizure activity (EEG) ([2]; intravenous furosemide, cumulative dose 40-60 mg/kg, kainic acid 10-12 mg/kg i.v.): blocked
difference score one week after treatment ([3]; compared with vehicle alone, FIG. 10): higher difference score
statistical difference from vehicle in difference score one week after treatment ([3]; error bars large for vehicle-treated animals): possibly a small difference
difference score (startle alone - fear potentiated startle) on the test day ([3]; i.v. in DMSO, furosemide 100 mg/kg, bumetanide 70 mg/kg, compared with vehicle alone, FIG. 8): statistically significantly lower difference score
CA1 field response to single test pulse [4, 5]: hyper-excitable field response
stimulation-evoked optical changes [4, 5]: blocked
electrical after discharge activity ([4]; 2.5 mM furosemide, after 20 minutes of perfusion, Schaffer collateral stimulation 60 Hz 2 s, CA1): blocked
recovery after washout ([4]; after 45 minutes of perfusion with normal bathing medium): restoration of initial response patterns
minimum concentration required to block both the after discharges and optical changes ([4]; dose-dependency experiments): 1.25 mM
